The values that follow come from US20250197420A1, “MACROCYCLIC COMPOUNDS, COMPOSITIONS, AND METHODS OF USING THEREOF” (Sionna Therapeutics Inc., priority 2022, published 2025).

SMILES strings stand for the structures.

Assay [1] deals with Primary human bronchial epithelial cells from a ΔF508 homozygous CF donor (CF-HBE cells). In words: TECC24 recording of CFTR-mediated transepithelial chloride transport, AUC fold over benchmark VX-809 @10 μM. The class given is cell-based. Conditions: 48 hours incubation, AUC of forskolin-stimulated IEQ. Put shortly:
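Values are the forskolin-to-inhibitor-172 AUC of equivalent Cl− current, derived from transepithelial voltage and resistance, divided by the VX-809 AUC and binned as A <3, B 3–6, C 6–20. Cells were pre-incubated with compound for 48 h at 36.5 °C; the bath (pH 7.4) received benzamil 10 μM, forskolin 10 μM, then CFTRinh-172 20 μM.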

Assay [2] deals with T1, Purified recombinant NBD1 (Homo sapiens, UniProt P13569).
T1 construct: Purified recombinant NBD1 was produced using previously described methods; made in house
T1 sequence (P13569 423-646 limits assumed): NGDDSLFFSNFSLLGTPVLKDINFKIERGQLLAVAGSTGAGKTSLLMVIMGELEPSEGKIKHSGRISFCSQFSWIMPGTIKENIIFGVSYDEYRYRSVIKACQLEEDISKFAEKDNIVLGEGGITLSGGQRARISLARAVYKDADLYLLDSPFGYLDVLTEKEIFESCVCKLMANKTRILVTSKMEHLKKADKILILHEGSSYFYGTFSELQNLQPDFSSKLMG
Nature of the assay: Aggregation analysis using differential static light scattering (DSLS): thermal stability of NBD1. The assay is classed as binding. The conditions noted are these: NBD1 0.2 mg/ml; Tagg of compound well minus average Tagg of DMSO control wells. Put shortly: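 ΔTagg is compound-well aggregation temperature minus the DMSO-control mean, each Tagg being the inflection point of light scattering measured by DSLS during a 1 °C/min ramp up to 70 °C. The protein was purified NBD1 (0.2 mg/ml) in pH 7.6 buffer containing 2 mM ATP, 5 mM MgCl2 and 1% glycerol.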

For the compound `CN1CC(C)(C)CCCC(C)(c2cccc(CCC(=O)O)c2)c2cnc([nH]2)-c2cc(ccc2F)Oc2c(F)cc3[nH]cnc3c2CCC1=O` (single isomer, unassigned) [Compound 72B, 3-[3-(23,29-difluoro-6,10,10,12-tetramethyl-13-oxo-25-oxa-3,12,18,20,31-pentazapentacyclo-[24.3.1.12,5.016,24.017,21]hentriaconta-1(30),2,4,16,18,21,23,26,28-nonaen-6-yl)phenyl]propanoic acid], the “TECC (test agent AUC divided by VX-809 AUC)” value in assay [1] is given as “A (a TECC value less than 3 is marked “A”)”. Further, the “DSLS (ΔTagg)” value in assay [2] is “B (a value above 5 °C and less than or equal to 10 °C is marked “B”)”.
On to `CN1CC(C)(C)CCC(C)(c2cccc(CCC(=O)O)c2)c2nc(n(C)n2)-c2cc(ccc2F)Oc2c(F)cc3[nH]ccc3c2CCC1=O` (single isomer, unassigned) [Compound 75A, 3-[3-(22,28-difluoro-3,6,9,9,11-pentamethyl-12-oxo-24-oxa-3,4,11,19,30-pentazapentacyclo[23.3.1.12,5.015,23.016,20]triaconta-1(29),2(30),4,15,17,20,22,25,27-nonaen-6-yl)phenyl]propanoic acid], for which the “TECC (test agent AUC divided by VX-809 AUC)” value in assay [1] is “B (a value between 3 and 6 is marked “B”)”. The “DSLS (ΔTagg)” value in assay [2] is “B (a value above 5 °C and less than or equal to 10 °C is marked “B”)”.
For the compound `CN1CC(C)(C)CCC(C)(c2cccc(CCC(=O)O)c2)c2nc(n(C)n2)-c2cc(ccc2F)Oc2c(F)cc3[nH]ccc3c2CCC1=O` (single isomer, unassigned) [Compound 75B, 3-[3-(22,28-difluoro-3,6,9,9,11-pentamethyl-12-oxo-24-oxa-3,4,11,19,30-pentazapentacyclo[23.3.1.12,5.015,23.016,20]triaconta-1(29),2(30),4,15,17,20,22,25,27-nonaen-6-yl)phenyl]propanoic acid], the “TECC (test agent AUC divided by VX-809 AUC)” value in assay [1] is listed as “A (a TECC value less than 3 is marked “A”)”. Also, the “DSLS (ΔTagg)” value in assay [2] was “A (an ΔTagg value less than or equal to 5 °C is marked “A”)”.
The corresponding values for `[2H]C([2H])([2H])n1nc2nc1-c1cc(ccc1F)Oc1c(F)cc3[nH]ccc3c1CCC(=O)NCC(C)(C)CCCC2(C)c1cccc(CCC(=O)O)c1` (single isomer, unassigned) [Compound 76A, 3-[3-[23,29-difluoro-6,10,10-trimethyl-13-oxo-3-(trideuteriomethyl)-25-oxa-3,4,12,20,31-pentazapentacyclo[24.3.1.12,5.016,24.017,21]hentriaconta-1(30),2(31),4,16,18,21,23,26,28-nonaen-6-yl]phenyl]propanoic acid] are “A (a TECC value less than 3 is marked “A”)” and “A (an ΔTagg value less than or equal to 5 °C is marked “A”)”.
Turning to `[2H]C([2H])([2H])n1nc2nc1-c1cc(ccc1F)Oc1c(F)cc3[nH]ccc3c1CCC(=O)NCC(C)(C)CCCC2(C)c1cccc(CCC(=O)O)c1` (single isomer, unassigned) [Compound 76B, 3-[3-[23,29-difluoro-6,10,10-trimethyl-13-oxo-3-(trideuteriomethyl)-25-oxa-3,4,12,20,31-pentazapentacyclo[24.3.1.12,5.016,24.017,21]hentriaconta-1(30),2(31),4,16,18,21,23,26,28-nonaen-6-yl]phenyl]propanoic acid], the “TECC (test agent AUC divided by VX-809 AUC)” value in assay [1] was “C (a value between 6 and 20 is marked “C”)”. In assay [2], the “DSLS (ΔTagg)” value is “C (a value greater than 10 °C and less than or equal to 25 °C is marked “C”)”.
On to `[2H]C([2H])([2H])n1nc2nc1-c1cc(ccc1F)Oc1c(F)cc3[nH]ccc3c1CCC(=O)N(C)CC(C)(C)CCCC2(C)c1cccc(CCC(=O)O)c1` (single isomer, unassigned) [Compound 77A, 3-[3-[23,29-difluoro-6,10,10,12-tetramethyl-13-oxo-3-(trideuteriomethyl)-25-oxa-3,4,12,20,31-pentazapentacyclo[24.3.1.12,5.016,24.017,21]-hentriaconta-1(30),2(31),4,16,18,21,23,26,28-nonaen-6-yl]phenyl]propanoic acid], for which, in assay [1], the “TECC (test agent AUC divided by VX-809 AUC)” value was “C (a value between 6 and 20 is marked “C”)”. Further, in assay [2], the “DSLS (ΔTagg)” value was “C (a value greater than 10 °C and less than or equal to 25 °C is marked “C”)”.
Consider `[2H]C([2H])([2H])n1nc2nc1-c1cc(ccc1F)Oc1c(F)cc3[nH]ccc3c1CCC(=O)N(C)CC(C)(C)CCCC2(C)c1cccc(CCC(=O)O)c1` (single isomer, unassigned) [Compound 77B, 3-[3-[23,29-difluoro-6,10,10,12-tetramethyl-13-oxo-3-(trideuteriomethyl)-25-oxa-3,4,12,20,31-pentazapentacyclo[24.3.1.12,5.016,24.017,21]-hentriaconta-1(30),2(31),4,16,18,21,23,26,28-nonaen-6-yl]phenyl]propanoic acid], for which the “TECC (test agent AUC divided by VX-809 AUC)” value in assay [1] is “A (a TECC value less than 3 is marked “A”)”. The “DSLS (ΔTagg)” value in assay [2] was “A (an ΔTagg value less than or equal to 5 °C is marked “A”)”.
The corresponding values for `[2H]C([2H])([2H])n1nc2nc1-c1cc(ccc1F)Oc1c(F)cc3[nH]ccc3c1CCC(=O)N(C)CC(C)(C)CCCC2(C)c1cccc(CCC(=O)NS(C)(=O)=O)c1` (single isomer, unassigned) [Compound 79A, 3-[3-[23,29-difluoro-6,10,10,12-tetramethyl-13-oxo-3-(trideuteriomethyl)-25-oxa-3,4,12,20,31-pentazapentacyclo[24.3.1.12,5.016,24.017,21]hentriaconta-1(30),2(31),4,16,18,21,23,26,28-nonaen-6-yl]phenyl]-N-methylsulfonyl-propanamide] are “A (a TECC value less than 3 is marked “A”)” and “A (an ΔTagg value less than or equal to 5 °C is marked “A”)”.
As to `[2H]C([2H])([2H])n1nc2nc1-c1cc(ccc1F)Oc1c(F)cc3[nH]ccc3c1CCC(=O)N(C)CC(C)(C)CCCC2(C)c1cccc(CCC(=O)NS(C)(=O)=O)c1` (single isomer, unassigned) [Compound 79B, 3-[3-[23,29-difluoro-6,10,10,12-tetramethyl-13-oxo-3-(trideuteriomethyl)-25-oxa-3,4,12,20,31-pentazapentacyclo[24.3.1.12,5.016,24.017,21]hentriaconta-1(30),2(31),4,16,18,21,23,26,28-nonaen-6-yl]phenyl]-N-methylsulfonyl-propanamide], the “TECC (test agent AUC divided by VX-809 AUC)” value in assay [1] was “C (a value between 6 and 20 is marked “C”)”. The “DSLS (ΔTagg)” value in assay [2] was “C (a value greater than 10 °C and less than or equal to 25 °C is marked “C”)”.
Consider `CC1(C)CCCCC(C)(c2cccc(CCC(=O)O)c2)c2cnc([nH]2)-c2cc(ccc2F)Oc2c(F)cc3[nH]ccc3c2COC(=O)N1` (single isomer, unassigned) [Compound 93A, 3-[3-(23,29-difluoro-6,11,11-trimethyl-13-oxo-14,25-dioxa-3,12,20,31-tetrazapentacyclo[24.3.1.12,5.016,24.017,21]hentriaconta-1(30),2,4,16,18,21,23,26,28-nonaen-6-yl)phenyl]propanoic acid], for which the “TECC (test agent AUC divided by VX-809 AUC)” value in assay [1] is “B (a value between 3 and 6 is marked “B”)”. In addition, in assay [2], the “DSLS (ΔTagg)” value was “A (an ΔTagg value less than or equal to 5 °C is marked “A”)”.
Take `CC1(C)CCCCC(C)(c2cccc(CCC(=O)O)c2)c2cnc([nH]2)-c2cc(ccc2F)Oc2c(F)cc3[nH]ccc3c2COC(=O)N1` (single isomer, unassigned) [Compound 93B, 3-[3-(23,29-difluoro-6,11,11-trimethyl-13-oxo-14,25-dioxa-3,12,20,31-tetrazapentacyclo[24.3.1.12,5.016,24.017,21]hentriaconta-1(30),2,4,16,18,21,23,26,28-nonaen-6-yl)phenyl]propanoic acid]: in assay [1], the “TECC (test agent AUC divided by VX-809 AUC)” value is reported as “A (a TECC value less than 3 is marked “A”)”. In addition, the “DSLS (ΔTagg)” value in assay [2] was “C (a value greater than 10 °C and less than or equal to 25 °C is marked “C”)”.
In the case of `CC1(C)CCCC(c2cccc(CCC(=O)O)c2)n2ccc(n2)-c2cc(ccc2F)Oc2c(F)cc3[nH]ccc3c2CCOC(=O)N1` (single isomer, unassigned) [Compound 95A, 3-[3-(23,29-difluoro-10,10-dimethyl-12-oxo-13,25-dioxa-5,11,20,31-tetrazapentacyclo-[24.3.1.12,5.016,24.017,21]hentriaconta-1(30),2(31),3,16(24),17(21),18,22,26,28-nonaen-6-yl)phenyl]propanoic acid], the “TECC (test agent AUC divided by VX-809 AUC)” value in assay [1] is “B (a value between 3 and 6 is marked “B”)”. In addition, the “DSLS (ΔTagg)” value in assay [2] is “B (a value above 5 °C and less than or equal to 10 °C is marked “B”)”.
`CC1(C)CCCC(c2cccc(CCC(=O)O)c2)n2ccc(n2)-c2cc(ccc2F)Oc2c(F)cc3[nH]ccc3c2CCOC(=O)N1` (single isomer, unassigned) [Compound 95B, 3-[3-(23,29-difluoro-10,10-dimethyl-12-oxo-13,25-dioxa-5,11,20,31-tetrazapentacyclo-[24.3.1.12,5.016,24.017,21]hentriaconta-1(30),2(31),3,16(24),17(21),18,22,26,28-nonaen-6-yl)phenyl]propanoic acid]: in assay [1], the “TECC (test agent AUC divided by VX-809 AUC)” value is “B (a value between 3 and 6 is marked “B”)”. Moreover, in assay [2], the “DSLS (ΔTagg)” value is “B (a value above 5 °C and less than or equal to 10 °C is marked “B”)”.
